Measurements taken from the OligoGym collection.
Values joined by “and” are separate entries in the source; they are usually repeats but may differ in a detail not shown here. Equal entries are not always repeated. After the bases stand the sugars from the 5' end (letter, count) and the backbone: PS all phosphorothioate, else s phosphorothioate and o phosphodiester by linkage. Methylation of C is not given here. e = 2'-O-(2-methoxyethyl) (MOE); k = constrained ethyl (cEt); d = 2'-deoxy (DNA)

Molecular target: IRF4
Details: ASO

## AAACAGTGCCCAAGCC (sugars k3 d10 k3, PS)
SK-MEL-28, 4 µM
  target mRNA inhibition: 25%

## TCAGGGAATCCCTTAT (sugars k3 d10 k3, PS)
MM.1R, 1 µM
  target mRNA inhibition: 4%

## AGAACGAGGTAAATCT (sugars k3 d10 k3, PS)
SK-MEL-28, 4 µM
  target mRNA inhibition: 40%

## GACTGGAGTGAACCCT (sugars k3 d10 k3, PS)
MM.1R, 1 µM
  target mRNA inhibition: 38%

## ATGTGTATTACTCTTA (sugars kkdddddddddkdkdk, PS)
MM.1R, 1 µM
  target mRNA inhibition: 44% and 32%

## CCCTTCCCCGCGACTC (sugars k3 d10 k3, PS)
SK-MEL-28, 4 µM
  target mRNA inhibition: 19%

## TGTCAAAGAGCTTGCA (sugars k3 d10 k3, PS)
SK-MEL-28, 4 µM
  target mRNA inhibition: 11%

## TATATATGACGACTTA (sugars k3 d10 k3, PS)
SK-MEL-28, 4 µM
  target mRNA inhibition: 20%

## AGCTATGCTCTAGGAA (sugars k3 d10 k3, PS)
MM.1R, 1 µM
  target mRNA inhibition: 11%

## CCCGAATAGGACCCCT (sugars k3 d10 k3, PS)
SK-MEL-28, 4 µM
  target mRNA inhibition: 40%

## GCCCAAGCCTTGAAGA (sugars k3 d10 k3, PS)
SK-MEL-28, 4 µM
  target mRNA inhibition: 15%

## GGGCACCCCGCCCCGA (sugars k3 d10 k3, PS)
SK-MEL-28, 4 µM
  target mRNA inhibition: 1%

## AATCTTCTGGATTGCT (sugars k3 d10 k3, PS)
MM.1R, 1 µM
  target mRNA inhibition: 14%

## CCACCCTCCGTCTCAC (sugars k3 d10 k3, PS)
SK-MEL-28, 4 µM
  target mRNA inhibition: 33%

## TACTGCTTGAGGTTTT (sugars e1 k2 d9 k2 e2, PS)
MM.1R, 1 µM
  target mRNA inhibition: 6%

## CCGTAGTCAGCTCCAT (sugars k3 d10 k3, PS)
SK-MEL-28, 4 µM
  target mRNA inhibition: 73%

## GAACAGATAGTTAAGT (sugars k3 d10 k3, PS)
SK-MEL-28, 4 µM
  target mRNA inhibition: 17%

## CACTAAGTGGGCTCTG (sugars k3 d10 k3, PS)
SK-MEL-28, 4 µM
  target mRNA inhibition: 41%

## CTTGATAAAGGCTGAA (sugars kkdddddddddekeke, PS)
MM.1R, 1 µM
  target mRNA inhibition: 19%

## GAGCTGTGATGAGCTT (sugars k3 d10 k3, PS)
SK-MEL-28, 4 µM
  target mRNA inhibition: 10%

## CGCAGGAGCGCGGAGG (sugars k3 d10 k3, PS)
MM.1R, 1 µM
  target mRNA inhibition: -28%

## CTTTATGCGAAGAATT (sugars k3 d10 k3, PS)
SK-MEL-28, 4 µM
  target mRNA inhibition: 30%

## GGCGGATAGATCTGTG (sugars k3 d10 k3, PS)
SK-MEL-28, 4 µM
  target mRNA inhibition: 51%

## GTAGTATGAGAAACGG (sugars k3 d10 k3, PS)
SK-MEL-28, 4 µM
  target mRNA inhibition: 83% and 80%

## GAGCTTTCTTTGCCTC (sugars k3 d10 k3, PS)
SK-MEL-28, 4 µM
  target mRNA inhibition: 13%

## CATAACTCAGGCAAGG (sugars k3 d10 k3, PS)
SK-MEL-28, 4 µM
  target mRNA inhibition: 36%

## CACCAGGTTAAACAGG (sugars k3 d10 k3, PS)
SK-MEL-28, 4 µM
  target mRNA inhibition: -8%

## CCTCCTTTAGTGTCGC (sugars k3 d10 k3, PS)
SK-MEL-28, 4 µM
  target mRNA inhibition: 65%

## GCACGGACGAACGCGC (sugars k3 d10 k3, PS)
SK-MEL-28, 4 µM
  target mRNA inhibition: 23%

## ACTGTTAAAGCAGCAT (sugars k3 d10 k3, PS)
SK-MEL-28, 4 µM
  target mRNA inhibition: 71%

## GATTATATACTGGTTG (sugars kkdddddddddkekek, PS)
MM.1R, 1 µM
  target mRNA inhibition: 45%

## ACCTCAGTTTGTGAAG (sugars kkkddddddddkekek, PS)
MM.1R, 1 µM
  target mRNA inhibition: -3%

## GCAATTAGCTCTTCTA (sugars k3 d10 k3, PS)
SK-MEL-28, 4 µM
  target mRNA inhibition: 21%

## AGTTCATGTAAAGTCT (sugars k3 d10 k3, PS)
SK-MEL-28, 4 µM
  target mRNA inhibition: 56% and 61%

## AGTTGTAAATGAGTCG (sugars kkkdddddddddkeke, PS)
MM.1R, 0.074 µM
  target mRNA inhibition: 29%
MM.1R, 0.222 µM
  target mRNA inhibition: 58%
MM.1R, 0.666 µM
  target mRNA inhibition: 76%
MM.1R, 1 µM
  target mRNA inhibition: 77%
MM.1R, 2 µM
  target mRNA inhibition: 90%

## TTATGTTAGCCAATTC (sugars kdddddddddkekeke, PS)
MM.1R, 1 µM
  target mRNA inhibition: 9% and 2%

## TTTACTGTTACCGATG (sugars k3 d10 k3, PS)
SK-MEL-28, 4 µM
  target mRNA inhibition: 48%

## GAATGGCGGATAGATC (sugars k3 d10 k3, PS)
MM.1R, 1 µM
  target mRNA inhibition: -3%

## TACTCACGAGCACCTC (sugars k3 d10 k3, PS)
SK-MEL-28, 4 µM
  target mRNA inhibition: 41%

## TGGACTCGGAGCTGAG (sugars k3 d10 k3, PS)
SK-MEL-28, 4 µM
  target mRNA inhibition: 24%

## ACAAGCATAAAAGGTT (sugars k4 d8 k4, PS)
SK-MEL-28, 4 µM
  target mRNA inhibition: 40%

## CTGAGTTACCGCATTG (sugars k3 d10 k3, PS)
MM.1R, 1 µM
  target mRNA inhibition: 49% and 54%

## CTACTGGGTACATGGC (sugars k3 d10 k3, PS)
SK-MEL-28, 4 µM
  target mRNA inhibition: 84%

## GCTGAGAGTTCAGGTC (sugars k3 d10 k3, PS)
MM.1R, 1 µM
  target mRNA inhibition: 7%

## GCCCAGCTAGCGCGCA (sugars k3 d10 k3, PS)
SK-MEL-28, 4 µM
  target mRNA inhibition: 29%

## TCCCAGTAGATCCTGC (sugars k3 d10 k3, PS)
SK-MEL-28, 4 µM
  target mRNA inhibition: 40%

## TTTATGTTAGCCAATT (sugars kkddddddddddkeke, PS)
MM.1R, 1 µM
  target mRNA inhibition: 11% and -5%

## GCACTGGCATTGAGAC (sugars k3 d10 k3, PS)
SK-MEL-28, 4 µM
  target mRNA inhibition: 73%

## AAACACCTCAGCTGAC (sugars k3 d10 k3, PS)
SK-MEL-28, 4 µM
  target mRNA inhibition: 16%

## GCCAAAGAGCCCAATT (sugars k3 d10 k3, PS)
SK-MEL-28, 4 µM
  target mRNA inhibition: 33%

## TTTCAAATCGACTGCC (sugars k3 d10 k3, PS)
SK-MEL-28, 4 µM
  target mRNA inhibition: 31%

## CCCATCTGTCTCAGTT (sugars k3 d10 k3, PS)
SK-MEL-28, 4 µM
  target mRNA inhibition: 66%

## GATGCAGCTGGCCACA (sugars k3 d10 k3, PS)
SK-MEL-28, 4 µM
  target mRNA inhibition: 73%

## AAACAGCCGCCGGCAC (sugars k3 d10 k3, PS)
SK-MEL-28, 4 µM
  target mRNA inhibition: 11%

## TCTATAGTGTTCCAGG (sugars kkdddddddddkekek, PS)
MM.1R, 1 µM
  target mRNA inhibition: 28%

## GATCGAGCGGTGAAAC (sugars k3 d10 k3, PS)
SK-MEL-28, 4 µM
  target mRNA inhibition: 23%

## TGTGTATTACTCTTAG (sugars kdddddddddkekeke, PS)
MM.1R, 1 µM
  target mRNA inhibition: 32% and 52%

## TGTGATAGCTGAGCTG (sugars kkddddddddddkeke, PS)
MM.1R, 1 µM
  target mRNA inhibition: 16%

## ACGGAAGTTTACACTG (sugars k3 d9 k3 e1, PS)
MM.1R, 1 µM
  target mRNA inhibition: 29%

## AAAGAAGCAAGTCGGT (sugars k3 d10 k3, PS)
MM.1R, 1 µM
  target mRNA inhibition: -2%

## AAAAACTTGGGTCACT (sugars k3 d10 k3, PS)
SK-MEL-28, 4 µM
  target mRNA inhibition: -19%

## TCCCATGGTTACTAAT (sugars k3 d10 k3, PS)
MM.1R, 1 µM
  target mRNA inhibition: -10%

## ATACATGTCTGGTTTA (sugars k3 d10 k3, PS)
MM.1R, 1 µM
  target mRNA inhibition: 4%

## AGGCACATCAATGTTT (sugars kddddddddddkekek, PS)
MM.1R, 1 µM
  target mRNA inhibition: 5%

## CTAAAGAATGAGGGTC (sugars k3 d10 k3, PS)
SK-MEL-28, 4 µM
  target mRNA inhibition: 62%

## CAGCACCGTGTGGAAA (sugars k3 d10 k3, PS)
SK-MEL-28, 4 µM
  target mRNA inhibition: 51%

## ATTTATAACCGGTAGA (sugars k3 d10 k3, PS)
MM.1R, 1 µM
  target mRNA inhibition: 28%

## TTCTTTATAGTAGGTA (sugars k3 d10 k3, PS)
MM.1R, 1 µM
  target mRNA inhibition: 15%

## ATGTAGGGATACAGCA (sugars k3 d10 k3, PS)
SK-MEL-28, 4 µM
  target mRNA inhibition: 74%

## GAGAAAACTCCTGAGT (sugars k3 d10 k3, PS)
SK-MEL-28, 4 µM
  target mRNA inhibition: 5%

## GCAGTGATGTCAGGTT (sugars kddddddddddkekek, PS)
MM.1R, 1 µM
  target mRNA inhibition: 36%

## ACCTTTACTTCATTCC (sugars k3 d10 k3, PS)
SK-MEL-28, 4 µM
  target mRNA inhibition: 64%

## AAAGGAGGTAGTGGCC (sugars k3 d10 k3, PS)
SK-MEL-28, 4 µM
  target mRNA inhibition: 21%

## GGGCAGGTTTCATTTC (sugars k3 d10 k3, PS)
SK-MEL-28, 4 µM
  target mRNA inhibition: 32%

## GAAAGGAGGTAGTGGC (sugars k3 d10 k3, PS)
SK-MEL-28, 4 µM
  target mRNA inhibition: 23%

## AAGTGATAGGTATACT (sugars k3 d10 k3, PS)
SK-MEL-28, 4 µM
  target mRNA inhibition: 50%

## TCTCCCACACCAGCCC (sugars k3 d10 k3, PS)
SK-MEL-28, 4 µM
  target mRNA inhibition: 6%

## GAGGTTCGCTGAATTG (sugars k3 d10 k3, PS)
SK-MEL-28, 4 µM
  target mRNA inhibition: 30%
